Patent US10577428B2, “Anti-factor XI monoclonal antibodies and methods of use thereof” (Oregon Health & Science University, priority 2007, dated 2020)

Experiments:
[1] = tested on: baboons; assay: Standard template skin bleeding time test (Surgicutt); format: in vivo, baboon
Method: The effects of FXI inhibition and aspirin on primary hemostasis in baboons were assessed using the standard template skin bleeding time test (Surgicutt®, International Technidyne Corp). […] All bleeding time measurements were performed by the same expert technician. For indirect assessment of hemostasis, aPTT and PT measurements were also performed.

[2] = tested on: baboons; assay: Observation for adverse reactions and bleeding events; format: in vivo, baboon; details: one week follow-up periods of observation
[3] = tested on: baboons (Papio anubis); assay: Vascular graft occlusion studies, collagen coated 2 mm i.d. grafts, high arterial shear; format: in vivo, baboon (Papio anubis)
Method: Thrombus formation was initiated within the baboon AV shunt by interposing a thrombogenic segment of prosthetic vascular graft (ePTFE, WL Gore & Co., Flagstaff, Ariz.), as previously described (Hanson et al. (1993) J. Clin. Invest. 92:2003-2012). To consistently trigger platelet-dependent thrombus formation, the clinical graft segments were coated with immobilized collagen. Twenty mm long grafts having internal diameters (i.d.) of either 2 or 4 mm were filled with equine type I collagen (1 mg/ml; Nycomed Arzenmittel, Munich, Germany) for 15 min, and then dried overnight under sterile airflow. This method produced a uniform collagen coating within the graft lumen as determined by scanning electron microscopy (FIGS. 1B and 1C). The thrombogenic collagen-coated grafts were then incorporated between segments of silicon rubber tubing, and deployed into the AV shunts (FIG. 1A). The grafts were exposed to blood for up to 60 min. During each experiment, the blood flow rate through the graft was restricted to 100 ml/min by clamping the proximal silicone rubber shunt segment, thereby producing a mean wall shear rate (MWSR) in the 4 mm grafts of 265 s^−1, while in the 2 mm grafts the initial MWSR was 2120 s^−1. Flow rates were continuously monitored using an ultrasonic flow meter (Transonics Systems, Ithaca, N.Y.). […] Baseline blood flow was restored through the permanent shunt after each experiment. In the 2 mm diameter grafts blood flow rates progressively declined due to thrombus formation. The grafts were removed from the AV shunts when the flow rate fell from 100 ml/min to below 20 ml/min, signaling imminent occlusion. The time from initiation of blood flow to graft removal (<20 ml/min blood flow) was taken as the occlusion time.
Occlusion studies were performed using 10 mm long 2 mm i.d. collagen coated devices which produced high arterial shear rates (2120 s^−1 at 100 ml/min clamped blood flow). Accumulation of labeled platelets onto 2 mm thrombogenic grafts were measured in 3-min intervals using a gamma scintillation camera. Flow was maintained at 100 ml/min by proximal clamping for as long as possible, and then allowed to decrease as the propagating thrombus began to occlude the device. A final blood flow rate of 20 ml/min was used as a cutoff for occlusion, since a fully occlusive thrombi and lack of blood flow through the device could lead to occlusion of the shunt and a significant loss of blood for the animals.
Since aspirin is a less antihemostatic agent than heparin, and it is often included in the standard treatment of arterial-type platelet-dependent thrombosis, ASA was used in the current studies with the occlusion-prone 2 mm i.d. grafts as a long-acting positive control. ASA (32 mg/kg) was administered orally 2-4 h before each thrombosis experiment, as described previously (Hanson et al. (1985) J. Clin. Invest. 75:1591-1599). Four weeks were allowed for washout of each aXIMab and ASA before performing new experiments in the same animal.

[4] = tested on: baboons; assay: Effect of locally infused PPACK during local sampling; format: in vivo, baboon; details: PPACK 0.5 mg/ml infused locally at 20 μl/min
Method: A novel local sampling method was used to assess the local production of thrombogenic mediators by sampling blood that superfused propagating experimental thrombi. […] All blood samples were collected into 1/10th volume 3.8% citrate anticoagulant. Systemic samples (1 ml each) were collected before initiation of thrombosis as well as 30 and 60 min into each study. A total of 6 local blood samples were drawn from the peripheral blood IBL at a rate of 100 μl/min over 10 min intervals out of a 0.64 mm port which was located 10 mm distal to the growing thrombus (FIG. 1A). […] Infusion and sampling were regulated by syringe pumps (Harvard Apparatus). Local sampling was performed only with the 4 mm i.d. devices in this study.

| Structure (SMILES) | effect on bleeding time / hemostasis ([1]; FIG. 6, compared with no treatment controls) | standard template bleeding time ([1]; vehicle-treated controls 3.4±0.2 min) [min] | adverse bleeding events [2] | platelet deposition ([3]; 2 mm i.d. grafts) | Number occluded ([3]; 2 mm i.d. grafts, 60 min) | Embolic events per experiment ([3]; 2 mm i.d. grafts, mean ± SEM) | Fibrin deposition ([3]; 2 mm i.d. grafts, mean ± SEM, control 0.30 ± 0.04) [mg] | grafts remained patent ([3]; 2 mm i.d. grafts, over 60 min) | time to graft occlusion prolonged by (average) ([3]; in 4 grafts, ASA 32 mg/kg orally) [min] | systemic prothrombin times (PT) or activated partial thromboplastin times (aPTT) [4] |
| --- | --- | --- | --- | --- | --- | --- | --- | --- | --- | --- |
| CC(=O)Oc1ccccc1C(=O)O [ASA, acetylsalicylic acid, reference compound] | prolonged the bleeding time | 6.4 ± 0.7 | No re-bleeding phenomena, petechiae, hematomas or other adverse bleeding events | reduced platelet deposition | 4/6 | 1.5 ± 0.6 | 0.23 ± 0.04 | 2 | 18 | – |
| NC(N)=NCCC[C@H](NC(=O)[C@@H]1CCCN1C(=O)[C@H](N)Cc1ccccc1)C(=O)CCl [PPACK, Phe-Pro-Arg-chloromethylketone] | – | – | – | – | – | – | – | – | – | did not affect |
